Measurements reported in article PMC7961048, “Hierarchized phosphotarget binding by the seven human 14-3-3 isoforms” (Nature Communications, 2021).
Starred links: 1 amine or outer side, 2 acyl side, 3 side chain; linkers in the order of their positions; H or OH if unused. Non-standard residues stand in square brackets, D forms with d. Residues, ends and D or L forms follow the SMILES beside them. *: point of attachment. X1 = O=C(CCCC[C@@H]1SC[C@@H]2NC(=O)N[C@@H]21)NCCCOCCOCCOCCCN*; pT = C[C@@H](OP(=O)(O)O)[C@H](N)C(=O)O; Suc = O=C(CCC(=O)[*:2])[*:1]

What was measured:
Type in all cases: binding
[1] = target: seven human 14-3-3 isoforms; assay: Affinities averaged or compared across the 14-3-3 family (ΔΔGav, KD ratios, affinity maps)
Description: Former studies have measured the binding of the seven human 14-3-3 isoforms to unrelated phospho-motifs derived from Cystic Fibrosis Transmembrane Conductance Regulator (CFTR), Leucine-Rich Repeat Kinase 2 (LRRK2), Potassium channel subfamily K members (TASK1/3), C-Raf, the p65 subunit of the NF-κB transcription factor, and from Ubiquitin carboxyl-terminal hydrolase 8 (USP8), representing a wide variety of different 14-3-3-binding motifs, including C-terminal, internal, monovalent, or divalent motifs[40],[44]–[48].
(gray background). The color scale is either based on affinity values or on KD ratios. √ denotes affinities weaker than the limit of quantitation of the experimental assays. b Same map as in a, normalized to the strongest 14-3-3-binding motif. […] Source data are provided as a Source Data file.
All binding data and the obtained fits are provided as Supplementary Data File 1.

14-3-3η = target: T1, 14-3-3η (Homo sapiens, UniProt Q04917); assay: biochemical
T1 construct: cDNAs encoding other full-length 14-3-3 isoforms β, τ, η, and σ were obtained as codon-optimized; made in house; host or cells: E. coli BL21(DE3)
T1 sequence (Q04917 1-246): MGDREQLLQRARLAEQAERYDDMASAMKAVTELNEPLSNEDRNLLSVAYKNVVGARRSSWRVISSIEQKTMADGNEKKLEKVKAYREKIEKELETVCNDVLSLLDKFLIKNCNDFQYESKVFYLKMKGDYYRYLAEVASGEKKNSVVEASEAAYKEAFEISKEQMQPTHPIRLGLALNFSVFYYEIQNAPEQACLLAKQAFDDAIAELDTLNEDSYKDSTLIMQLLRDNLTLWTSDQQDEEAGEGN

14-3-3ε = target: T2, 14-3-3ε (Homo sapiens, UniProt P62258); assay: biochemical
T2 construct: Plasmids containing the cDNAs of the full-length 14-3-3 isoforms ε, γ, and ζ were received; made in house; host or cells: E. coli BL21(DE3)
T2 sequence (P62258 1-255): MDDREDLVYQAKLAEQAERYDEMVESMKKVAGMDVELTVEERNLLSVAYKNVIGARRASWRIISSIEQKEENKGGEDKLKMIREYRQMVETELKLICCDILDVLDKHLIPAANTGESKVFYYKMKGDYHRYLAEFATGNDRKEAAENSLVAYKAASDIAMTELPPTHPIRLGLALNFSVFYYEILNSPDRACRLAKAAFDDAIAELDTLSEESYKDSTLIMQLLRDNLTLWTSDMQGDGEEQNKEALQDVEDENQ

In the case of `CC(C)[C@H](NC(=O)[C@H](C)NC(=O)[C@@H](NC(=O)[C@H](CCC(=O)O)NC(=O)[C@H](CCCNC(=N)N)NC(=O)[C@H](CCCNC(=N)N)NC(=O)[C@@H](NC(=O)[C@@H]1CCCN1C(=O)[C@H](CCCCN)NC(=O)[C@H](CO)NC(=O)CCC(=O)NCCCOCCOCCOCCCNC(=O)CCCC[C@@H]1SC[C@@H]2NC(=O)N[C@@H]21)[C@@H](C)O)[C@@H](C)OP(=O)(O)O)C(=O)O` [pHPV35E6E-1A] ({X1-Suc}-SKPTRRE[pT]AV-OH), the “KD ratios, compared to LRRK2 pS910/pS935, 14-3-3β” value ([1]; Figure 4 panel b, 14-3-3β) is reported as 957.35, the “KD ratios, compared to LRRK2 pS910/pS935, 14-3-3γ” value ([1]; Figure 4 panel b, 14-3-3γ) is reported as 2909.38 and the “KD ratios, compared to LRRK2 pS910/pS935, 14-3-3ε” value ([1]; Figure 4 panel b, 14-3-3ε) is reported as 2572.58. The “KD ratios, compared to LRRK2 pS910/pS935, 14-3-3ζ” value ([1]; Figure 4 panel b, 14-3-3ζ) was 3666.67, the “KD ratios, compared to LRRK2 pS910/pS935, 14-3-3η” value ([1]; Figure 4 panel b, 14-3-3η) was 2583.33 and the “KD ratios, compared to LRRK2 pS910/pS935, 14-3-3σ” value ([1]; Figure 4 panel b, 14-3-3σ) was 727.72. For the same compound, the “KD ratios, compared to LRRK2 pS910/pS935, 14-3-3τ” value ([1]; Figure 4 panel b, 14-3-3τ) was 2263.16, the “KD ratios, compared to LRRK2 pS910/pS935, average” value ([1]; Figure 4 panel b, average over the isoforms) was 2200.00 and the “KD ratios, compared to 14-3-3γ, 14-3-3β” value ([1]; Figure 4 panel c, 14-3-3β) was 2.17. For the same compound, the “KD ratios, compared to 14-3-3γ, 14-3-3γ” value ([1]; Figure 4 panel c, 14-3-3γ) was 1.00, the “KD ratios, compared to 14-3-3γ, 14-3-3ε” value ([1]; Figure 4 panel c, 14-3-3ε) was 3.43 and the “KD ratios, compared to 14-3-3γ, 14-3-3ζ” value ([1]; Figure 4 panel c, 14-3-3ζ) was 1.89. For the same compound, the “KD ratios, compared to 14-3-3γ, 14-3-3η” value ([1]; Figure 4 panel c, 14-3-3η) was 1.33, the “KD ratios, compared to 14-3-3γ, 14-3-3σ” value ([1]; Figure 4 panel c, 14-3-3σ) was 4.74 and the “KD ratios, compared to 14-3-3γ, 14-3-3τ” value ([1]; Figure 4 panel c, 14-3-3τ) was 2.31. The Kd (14-3-3η) was 12.4 µM and the Kd (14-3-3ε) was 31.9 µM.
For `CC(C)[C@H](NC(=O)[C@H](CCC(=O)O)NC(=O)[C@@H](NC(=O)[C@H](CCC(=O)O)NC(=O)[C@H](CCCNC(=N)N)NC(=O)[C@H](CCCNC(=N)N)NC(=O)[C@@H](NC(=O)[C@@H]1CCCN1C(=O)[C@H](CCCCN)NC(=O)[C@H](CO)NC(=O)CCC(=O)NCCCOCCOCCOCCCNC(=O)CCCC[C@@H]1SC[C@@H]2NC(=O)N[C@@H]21)[C@@H](C)O)[C@@H](C)OP(=O)(O)O)C(=O)O` [pHPV35E6] ({X1-Suc}-SKPTRRE[pT]EV-OH), the “binding to 14-3-3 proteins” value ([1]; competitive FP, seven MBP-fused full-length 14-3-3 isoforms, result in words) was “detectably bound”, the Kd (14-3-3η) was 163 ± 19 µM and the “Binding affinities (KD) of various 14-3-3-binding motifs, 14-3-3ε” value (14-3-3ε) was “√”. It also gave a Kd (14-3-3ε) of over 300 µM.
